# Measurements as given in the NIST ThermoML archive (doi:10.1021/je7006692).
# Numbers after ± are expanded uncertainties.
# Assay: relative permittivity at zero frequency (dimensionless)
# Details: Liquid
smiles,measurement,setting,value
Cc1ccccc1 [toluene],relative permittivity at zero frequency,"290.63 K, 100 kPa, Reentrant cavity resonator",2.40453 ± 0.006
same,relative permittivity at zero frequency,"290.65 K, 100 kPa, Reentrant cavity resonator",2.40448 ± 0.006
same,relative permittivity at zero frequency,"290.69 K, 2170 kPa, Reentrant cavity resonator",2.41272 ± 0.00061
same,relative permittivity at zero frequency,"290.77 K, 4240 kPa, Reentrant cavity resonator",2.41409 ± 0.00061
same,relative permittivity at zero frequency,"290.81 K, 6310 kPa, Reentrant cavity resonator",2.41721 ± 0.00061
same,relative permittivity at zero frequency,"290.83 K, 8370 kPa, Reentrant cavity resonator",2.4202 ± 0.00061
same,relative permittivity at zero frequency,"290.87 K, 12510 kPa, Reentrant cavity resonator",2.42629 ± 0.00061
same,relative permittivity at zero frequency,"290.88 K, 16100 kPa, Reentrant cavity resonator",2.43136 ± 0.00061
same,relative permittivity at zero frequency,"290.9 K, 16650 kPa, Reentrant cavity resonator",2.4322 ± 0.00061
same,relative permittivity at zero frequency,"291.15 K, 100 kPa, Reentrant cavity resonator",2.3983 ± 0.006
same,relative permittivity at zero frequency,"292.65 K, 100 kPa, Reentrant cavity resonator",2.40346 ± 0.006
same,relative permittivity at zero frequency,"294.8 K, 100 kPa, Reentrant cavity resonator",2.39092 ± 0.006
same,relative permittivity at zero frequency,"297.37 K, 34905 kPa",2.443 ± 0.004
same,relative permittivity at zero frequency,"297.37 K, 41879 kPa",2.4564 ± 0.004
same,relative permittivity at zero frequency,"297.38 K, 27906 kPa",2.4276 ± 0.004
same,relative permittivity at zero frequency,"297.39 K, 20942 kPa",2.4127 ± 0.004
same,relative permittivity at zero frequency,"297.4 K, 13927 kPa",2.3962 ± 0.004
same,relative permittivity at zero frequency,"297.41 K, 6919 kPa",2.3777 ± 0.004
same,relative permittivity at zero frequency,"310.68 K, 100 kPa, Reentrant cavity resonator",2.35675 ± 0.006
same,relative permittivity at zero frequency,"310.79 K, 100 kPa, Reentrant cavity resonator",2.35646 ± 0.006
same,relative permittivity at zero frequency,"311.94 K, 100 kPa, Reentrant cavity resonator",2.35363 ± 0.006
same,relative permittivity at zero frequency,"314.47 K, 100 kPa, Reentrant cavity resonator",2.3479 ± 0.006
same,relative permittivity at zero frequency,"315.68 K, 100 kPa, Reentrant cavity resonator",2.34035 ± 0.006
same,relative permittivity at zero frequency,"315.77 K, 100 kPa, Reentrant cavity resonator",2.33999 ± 0.006
same,relative permittivity at zero frequency,"315.78 K, 1140 kPa, Reentrant cavity resonator",2.34185 ± 0.00061
same,relative permittivity at zero frequency,"315.78 K, 8370 kPa, Reentrant cavity resonator",2.35428 ± 0.00061
same,relative permittivity at zero frequency,"315.79 K, 2170 kPa, Reentrant cavity resonator",2.34366 ± 0.00061
same,relative permittivity at zero frequency,"315.79 K, 3200 kPa, Reentrant cavity resonator",2.34545 ± 0.00061
same,relative permittivity at zero frequency,"315.79 K, 4240 kPa, Reentrant cavity resonator",2.34729 ± 0.00061
same,relative permittivity at zero frequency,"315.79 K, 6310 kPa, Reentrant cavity resonator",2.35078 ± 0.00061
same,relative permittivity at zero frequency,"315.79 K, 12510 kPa, Reentrant cavity resonator",2.36095 ± 0.00061
same,relative permittivity at zero frequency,"315.79 K, 16650 kPa, Reentrant cavity resonator",2.3674 ± 0.00061
same,relative permittivity at zero frequency,"315.79 K, 19410 kPa, Reentrant cavity resonator",2.37152 ± 0.00061
same,relative permittivity at zero frequency,"320.64 K, 100 kPa, Reentrant cavity resonator",2.32926 ± 0.006
same,relative permittivity at zero frequency,"320.66 K, 1140 kPa, Reentrant cavity resonator",2.33114 ± 0.00061
same,relative permittivity at zero frequency,"324.52 K, 100 kPa, Reentrant cavity resonator",2.32053 ± 0.006
same,relative permittivity at zero frequency,"324.53 K, 1140 kPa, Reentrant cavity resonator",2.32241 ± 0.00061
same,relative permittivity at zero frequency,"324.54 K, 2170 kPa, Reentrant cavity resonator",2.32435 ± 0.00061
same,relative permittivity at zero frequency,"324.54 K, 3200 kPa, Reentrant cavity resonator",2.32625 ± 0.00061
same,relative permittivity at zero frequency,"324.54 K, 4240 kPa, Reentrant cavity resonator",2.32811 ± 0.00061
same,relative permittivity at zero frequency,"324.54 K, 6310 kPa, Reentrant cavity resonator",2.33179 ± 0.00061
same,relative permittivity at zero frequency,"324.58 K, 8370 kPa, Reentrant cavity resonator",2.33528 ± 0.00061
same,relative permittivity at zero frequency,"324.61 K, 12510 kPa, Reentrant cavity resonator",2.34222 ± 0.00061
same,relative permittivity at zero frequency,"324.62 K, 16650 kPa, Reentrant cavity resonator",2.34897 ± 0.00061
same,relative permittivity at zero frequency,"339.31 K, 100 kPa, Reentrant cavity resonator",2.28784 ± 0.006
same,relative permittivity at zero frequency,"339.35 K, 2170 kPa, Reentrant cavity resonator",2.2919 ± 0.00061
same,relative permittivity at zero frequency,"339.38 K, 4240 kPa, Reentrant cavity resonator",2.29596 ± 0.00061
same,relative permittivity at zero frequency,"339.38 K, 6310 kPa, Reentrant cavity resonator",2.29992 ± 0.00061
same,relative permittivity at zero frequency,"339.39 K, 8370 kPa, Reentrant cavity resonator",2.3038 ± 0.00061
same,relative permittivity at zero frequency,"339.41 K, 12510 kPa, Reentrant cavity resonator",2.31127 ± 0.00061
same,relative permittivity at zero frequency,"339.41 K, 16650 kPa, Reentrant cavity resonator",2.31844 ± 0.00061
same,relative permittivity at zero frequency,"357.44 K, 6310 kPa, Reentrant cavity resonator",2.26156 ± 0.00061
same,relative permittivity at zero frequency,"357.45 K, 2170 kPa, Reentrant cavity resonator",2.25261 ± 0.00061
same,relative permittivity at zero frequency,"357.45 K, 4240 kPa, Reentrant cavity resonator",2.25717 ± 0.00061
same,relative permittivity at zero frequency,"357.46 K, 100 kPa, Reentrant cavity resonator",2.24793 ± 0.006
same,relative permittivity at zero frequency,"357.52 K, 8370 kPa, Reentrant cavity resonator",2.26578 ± 0.00061
same,relative permittivity at zero frequency,"357.54 K, 12510 kPa, Reentrant cavity resonator",2.274 ± 0.00061
same,relative permittivity at zero frequency,"357.55 K, 16650 kPa, Reentrant cavity resonator",2.28185 ± 0.00061
same,relative permittivity at zero frequency,"390.53 K, 170 kPa, Reentrant cavity resonator",2.17781 ± 0.00064
same,relative permittivity at zero frequency,"390.53 K, 2170 kPa, Reentrant cavity resonator",2.18342 ± 0.00061
same,relative permittivity at zero frequency,"390.59 K, 100 kPa, Reentrant cavity resonator",2.17698 ± 0.006
same,relative permittivity at zero frequency,"390.59 K, 4240 kPa, Reentrant cavity resonator",2.18899 ± 0.00061
same,relative permittivity at zero frequency,"390.61 K, 6310 kPa, Reentrant cavity resonator",2.19431 ± 0.00061
same,relative permittivity at zero frequency,"390.63 K, 8370 kPa, Reentrant cavity resonator",2.19969 ± 0.00061
same,relative permittivity at zero frequency,"390.65 K, 12510 kPa, Reentrant cavity resonator",2.20969 ± 0.00061
same,relative permittivity at zero frequency,"390.68 K, 16650 kPa, Reentrant cavity resonator",2.21925 ± 0.00061
same,relative permittivity at zero frequency,"405.84 K, 2170 kPa, Reentrant cavity resonator",2.14947 ± 0.00061
same,relative permittivity at zero frequency,"406.3 K, 6310 kPa, Reentrant cavity resonator",2.16081 ± 0.00061
same,relative permittivity at zero frequency,"406.32 K, 4240 kPa, Reentrant cavity resonator",2.15467 ± 0.00061
same,relative permittivity at zero frequency,"406.37 K, 8370 kPa, Reentrant cavity resonator",2.16653 ± 0.00061
same,relative permittivity at zero frequency,"406.54 K, 12510 kPa, Reentrant cavity resonator",2.17721 ± 0.00061
same,relative permittivity at zero frequency,"406.64 K, 16650 kPa, Reentrant cavity resonator",2.18731 ± 0.00061
